Results reported in patent US5179105A, “Phenoxyacetic acid compounds, method for production thereof, and pharmaceutical preparations containing same” (Terumo Kabushiki Kaisha, priority 1990, dated 1993).

Key:
Parameters in all cases: species or system Hartley type male guinea pigs
thromboxane A2 = assay: in vitro antagonistic action to thromboxane A2 (U-46619-induced shrinkage of excised bronchial segments); conditions: guinea pig bronchial segments, U-46619 10^-7; read-out: antagonistic action to Tx A2 (IC50)
Description: (§1) The IC50 values indicative of the in vitro antagonistic actions of the compounds of this invention to thromboxane A2 and leukotriene D4 were determined by the use of the following test system.
(§2) Bronchial segments and ileal segments excised from Hartley type male guinea pigs 350 to 450 g in body weight were suspended under respective loads of 0.3 g and 0.5 g in Magnus baths containing Tyrode solution and kept exposed to passage therethrough of a mixed gas consisting of 95% of oxygen and 5% of carbon dioxide. After the suspended segments were stabilized for about one hour, U-46619 (equivalent to thromboxane A2, produced by Kaiman K. K.) was added in a concentration of 10^-7 to the bath containing the bronchial segments and leukotriene D4 (produced by Wako Pure Chemicals Co., Ltd.) in a concentration of 10^-8 M to the bath containing the […] contrast to the amounts of shrinkage produced in the bronchial segments and ileal segments, the amounts of shrinkage produced by U-46619 in the bronchial segments and the amounts of shrinkage produced by leukotriene D4 in the ileal segments both in the presence of the compounds of this invention added in varying concentrations were measured. The IC50 values were computed based on the results of the measurement.

leukotriene D4 [1] = assay: in vitro antagonistic action to leukotriene D4 (LTD4-induced shrinkage of excised ileal segments); conditions: guinea pig ileal segments, leukotriene D4 10^-8 M
Description: as §1, §2

leukotriene D4 [2] = assay: in vitro antagonistic action to leukotriene D4 (LTD4-induced shrinkage of excised bronchial segments); conditions: guinea pig bronchial segments, leukotriene D4 10^-8 M
Description: as §1, §2

For `CCCc1c(OCC(=O)Nc2cc(CCCS(=O)(=O)c3ccc(Cl)cc3)ccc2OCC(=O)O)ccc(C(C)=O)c1O`, the IC50 (thromboxane A2) was 4.5 nM and the IC50 (leukotriene D4 [1]) was 3800 nM.

Molecule `CCCc1c(OCCCC(=O)Nc2cc(CCCS(=O)(=O)c3ccc(Cl)cc3)ccc2OCC(=O)O)ccc(C(C)=O)c1O` has an IC50 (thromboxane A2) of 50 nM, an IC50 (leukotriene D4 [1]) of 430 nM and an IC50 (leukotriene D4 [2]) of 70 nM.

`O=C(O)COc1ccc(CCCS(=O)(=O)c2ccc(Cl)cc2)cc1NC(=O)c1ccc(OCc2ccc3ccccc3n2)cc1` gave an IC50 (thromboxane A2) of 26 nM and an IC50 (leukotriene D4 [1]) of 370 nM.

Molecule `O=C(O)COc1ccc(CCCS(=O)(=O)c2ccc(Cl)cc2)cc1NC(=O)c1cccc(OCc2ccc3ccccc3n2)c1` [drawing 21] has an IC50 (thromboxane A2) of 57 nM, an IC50 (leukotriene D4 [1]) of 1.3 nM and an IC50 (leukotriene D4 [2]) of 4 nM.

With `O=C(O)COc1ccc(CCCS(=O)(=O)c2ccc(Cl)cc2)cc1NC(=O)c1cccc(OCc2ccc3ccccc3n2)c1` [drawing 22] the IC50 (thromboxane A2) was 30 nM and the IC50 (leukotriene D4 [2]) was 150 nM.
